29 compounds from patent publication US8624040B2, “Substituted hydroxamic acids and uses thereof” (Millennium Pharmaceuticals, Inc., priority 2009, dated 2014) can be followed below.

pIC50: −log10 of the molar value.

The experiment concerns the target T1, purified human HDAC6 (Homo sapiens, UniProt Q9UBN7).
T1 construct: purchased BPS Bioscience 5006
T1 sequence (Q9UBN7 1-1215): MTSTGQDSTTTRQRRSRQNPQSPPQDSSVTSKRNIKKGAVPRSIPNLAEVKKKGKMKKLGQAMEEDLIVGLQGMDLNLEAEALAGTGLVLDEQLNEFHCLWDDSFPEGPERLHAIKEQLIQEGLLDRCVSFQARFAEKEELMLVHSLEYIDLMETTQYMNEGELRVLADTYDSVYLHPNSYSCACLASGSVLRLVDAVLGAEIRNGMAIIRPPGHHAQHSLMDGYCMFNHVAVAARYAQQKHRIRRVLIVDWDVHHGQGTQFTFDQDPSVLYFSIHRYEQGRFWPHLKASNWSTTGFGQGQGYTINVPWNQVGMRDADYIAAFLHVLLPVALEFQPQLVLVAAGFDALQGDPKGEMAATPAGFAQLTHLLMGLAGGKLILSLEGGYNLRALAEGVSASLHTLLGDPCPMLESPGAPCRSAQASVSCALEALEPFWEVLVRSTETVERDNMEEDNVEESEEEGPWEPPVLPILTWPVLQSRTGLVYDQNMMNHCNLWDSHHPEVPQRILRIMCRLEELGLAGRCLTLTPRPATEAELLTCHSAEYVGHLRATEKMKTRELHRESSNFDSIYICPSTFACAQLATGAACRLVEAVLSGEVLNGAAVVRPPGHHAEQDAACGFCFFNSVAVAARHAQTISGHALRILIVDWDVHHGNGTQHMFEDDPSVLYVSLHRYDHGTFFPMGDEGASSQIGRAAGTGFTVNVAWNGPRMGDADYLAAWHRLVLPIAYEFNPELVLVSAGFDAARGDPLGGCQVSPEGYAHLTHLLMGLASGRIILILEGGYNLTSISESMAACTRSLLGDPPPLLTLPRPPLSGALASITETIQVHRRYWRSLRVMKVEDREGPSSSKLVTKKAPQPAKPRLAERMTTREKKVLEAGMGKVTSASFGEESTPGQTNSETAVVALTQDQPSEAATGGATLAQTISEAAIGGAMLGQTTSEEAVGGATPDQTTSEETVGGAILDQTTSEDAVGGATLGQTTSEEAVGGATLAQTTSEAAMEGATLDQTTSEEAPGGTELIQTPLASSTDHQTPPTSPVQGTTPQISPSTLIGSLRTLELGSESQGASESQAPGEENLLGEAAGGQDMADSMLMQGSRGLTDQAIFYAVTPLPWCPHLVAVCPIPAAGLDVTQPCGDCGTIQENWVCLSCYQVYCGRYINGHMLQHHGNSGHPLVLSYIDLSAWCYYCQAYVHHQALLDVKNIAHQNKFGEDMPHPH
Description: HDAC6 Enzyme Assay. It counts as biochemical. The note with it: enzyme inhibition, substrate Ac-Arg-Gly-Lys(Ac)-AMC, 1 hour at 30° C. In short, it runs like this:
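Purified human HDAC6 incubated 1 h at 30 °C with Ac-Arg-Gly-Lys(Ac)-AMC peptide and compound; reaction stopped with trichostatin A, then trypsin releases AMC, read by fluorescence (Ex 340/Em 460 nm). IC50 from concentration-response curves relative to DMSO controls.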
One may read the pIC50 as the negative decadic logarithm of the IC50, by convention in mol/L. High values mean a small IC50, low ones a large IC50. In turn, `Cc1onc(-c2ccccc2)c1C(=O)N1CCc2cc(C(=O)NO)sc2C1` [Compound 107, N-hydroxy-6-[(5-methyl-3-phenylisoxazol-4-yl)carbonyl]-4,5,6,7-tetrahydrothieno[2,3-c]pyridine-2-carboxamide] showed a pIC50 greater than 7.30.

`COc1ccc(CN2CCc3cc(C(=O)NO)sc3C2)cc1` [Compound 111, N-hydroxy-6-(4-methoxybenzyl)-4,5,6,7-tetrahydrothieno[2,3-c]pyridine-2-carboxamide] showed a pIC50 of less than 6.00.

`Cn1cccc1C(=O)N1CCc2cc(C(=O)NO)sc2C1` [Compound 116, N-hydroxy-6-[(1-methyl-1H-pyrrol-2-yl)carbonyl]-4,5,6,7-tetrahydrothieno[2,3-c]pyridine-2-carboxamide]: the pIC50 was greater than 7.30. For the compound `Cc1cc(C)n(CC(=O)N2CCc3cc(C(=O)NO)sc3C2)n1` [Compound 125, 6-(2-(3,5-dimethyl-1H-pyrazol-1-yl)acetyl)-N-hydroxy-4,5,6,7-tetrahydrothieno[2,3-c]pyridine-2-carboxamide], the pIC50 was 7.00 to 7.30. To `O=C(NO)c1cc2c(s1)CN(C(=O)c1cnn(-c3ccccc3)c1)CC2` [Compound 127, N-hydroxy-6-[(1-phenyl-1H-pyrazol-4-yl)carbonyl]-4,5,6,7-tetrahydrothieno[2,3-c]pyridine-2-carboxamide] belongs greater than 7.30; to `CC(=O)Nc1cc(NC(C)=O)cc(C(=O)N2CCc3cc(C(=O)NO)sc3C2)c1` [Compound 131, 6-[3,5-bis(acetylamino)benzoyl]-N-hydroxy-4,5,6,7-tetrahydrothieno[2,3-c]pyridine-2-carboxamide], greater than 7.30; to `Cc1onc(-c2ccccc2)c1NC(=O)N1CCc2cc(C(=O)NO)sc2C1` [Compound 132, N^2-hydroxy-N^6-(5-methyl-3-phenylisoxazol-4-yl)-4,7-dihydrothieno[2,3-c]pyridine-2,6(5H)-dicarboxamide], greater than 7.30. Take `O=C(NO)c1cc2c(s1)CN(C(=O)c1cccc(-n3cccn3)c1)CC2` [Compound 133, 6-(3-(1H-pyrazol-1-yl)benzoyl)-N-hydroxy-4,5,6,7-tetrahydrothieno[2,3-c]pyridine-2-carboxamide]: the pIC50 is greater than 7.30. `CC(C)c1ccc(NC(=O)N2CCc3cc(C(=O)NO)sc3C2)cc1` [Compound 139, N^2-hydroxy-N^6-(4-isopropylphenyl)-4,7-dihydrothieno[2,3-c]pyridine-2,6(5H)-dicarboxamide]: the pIC50 is greater than 7.30. To `O=C(NO)c1cc2c(s1)CN(C(=O)c1cc(F)cc(F)c1)CC2` [Compound 140, 6-(3,5-difluorobenzoyl)-N-hydroxy-4,5,6,7-tetrahydrothieno[2,3-c]pyridine-2-carboxamide] belongs greater than 7.30. To `O=C(NO)c1cc2c(s1)CN(C(=O)c1cscn1)CC2` [Compound 146, N-hydroxy-6-(1,3-thiazol-4-ylcarbonyl)-4,5,6,7-tetrahydrothieno[2,3-c]pyridine-2-carboxamide] belongs greater than 7.30. `CCn1nc(C)cc1C(=O)N1CCc2cc(C(=O)NO)sc2C1` [Compound 149, 6-[(1-ethyl-3-methyl-1H-pyrazol-5-yl)carbonyl]-N-hydroxy-4,5,6,7-tetrahydrothieno[2,3-c]pyridine-2-carboxamide] showed a pIC50 of 7.00 to 7.30. Compound `Cc1nc(-c2ccccc2)ncc1C(=O)N1CCc2cc(C(=O)NO)sc2C1` [Compound 152, N-hydroxy-6-[(4-methyl-2-phenylpyrimidin-5-yl)carbonyl]-4,5,6,7-tetrahydrothieno[2,3-c]pyridine-2-carboxamide] gave a pIC50 greater than 7.30. The compound `O=C(NO)c1cc2c(s1)CN(C(=O)c1c(F)c(F)cc(F)c1F)CC2` [Compound 156, N-hydroxy-6-(2,3,5,6-tetrafluorobenzoyl)-4,5,6,7-tetrahydrothieno[2,3-c]pyridine-2-carboxamide] had a pIC50 greater than 7.30.

`Nc1[nH]ncc1C(=O)N1CCc2cc(C(=O)NO)sc2C1` [Compound 159, 6-[(5-amino-1H-pyrazol-4-yl)carbonyl]-N-hydroxy-4,5,6,7-tetrahydrothieno[2,3-c]pyridine-2-carboxamide] had a pIC50 greater than 7.30. In the case of `O=C(NO)c1cc2c(s1)CN(C(=O)Nc1ccc(I)cc1)CC2` [Compound 163, N^2-hydroxy-N^6-(4-iodophenyl)-4,7-dihydrothieno[2,3-c]pyridine-2,6(5H)-dicarboxamide], the pIC50 is greater than 7.30. The compound `CCCCc1ccc(NC(=O)N2CCc3cc(C(=O)NO)sc3C2)cc1` [Compound 169, N^6-(4-butylphenyl)-N^2-hydroxy-4,7-dihydrothieno[2,3-c]pyridine-2,6(5H)-dicarboxamide] had a pIC50 greater than 7.30. `O=C(NO)c1cc2c(s1)CN(C(=O)c1ccc(C(F)(F)F)cc1)CC2` [Compound 171, N-hydroxy-6-(4-(trifluoromethyl)benzoyl)-4,5,6,7-tetrahydrothieno[2,3-c]pyridine-2-carboxamide] showed a pIC50 greater than 7.30.

The compound `Cc1cc(C)c(NC(=O)N2CCc3cc(C(=O)NO)sc3C2)c(C)c1` [Compound 176, N^2-hydroxy-N^6-mesityl-4,7-dihydrothieno[2,3-c]pyridine-2,6(5H)-dicarboxamide] had a pIC50 greater than 7.30.

On to `Cc1noc(C)c1C(=O)N1CCc2cc(C(=O)NO)sc2C1` [Compound 177, 6-[(3,5-dimethylisoxazol-4-yl)carbonyl]-N-hydroxy-4,5,6,7-tetrahydrothieno[2,3-c]pyridine-2-carboxamide], for which the pIC50 was greater than 7.30. With `Cc1cc(C(=O)N2CCc3cc(C(=O)NO)sc3C2)c(C)o1` [Compound 178, 6-(2,5-dimethyl-3-furoyl)-N-hydroxy-4,5,6,7-tetrahydrothieno[2,3-c]pyridine-2-carboxamide], the pIC50 is 7.00 to 7.30.

`O=C(NO)c1cc2c(s1)CN(C(=O)c1ccc3ccccc3n1)CC2` [Compound 179, N-hydroxy-6-(quinolin-2-ylcarbonyl)-4,5,6,7-tetrahydrothieno[2,3-c]pyridine-2-carboxamide] had a pIC50 greater than 7.30. Turning to `O=C(NO)c1cc2c(s1)CN(C(=O)c1ccc(F)cc1)CC2` [Compound 182, 6-(4-fluorobenzoyl)-N-hydroxy-4,5,6,7-tetrahydrothieno[2,3-c]pyridine-2-carboxamide], the pIC50 was 7.00 to 7.30. Compound `Cc1onc(-c2ccc(F)cc2)c1C(=O)N1CCc2cc(C(=O)NO)sc2C1` [Compound 184, 6-{[3-(4-fluorophenyl)-5-methylisoxazol-4-yl]carbonyl}-N-hydroxy-4,5,6,7-tetrahydrothieno[2,3-c]pyridine-2-carboxamide] gave a pIC50 greater than 7.30.

As for `CCc1cc(C(=O)N2CCc3cc(C(=O)NO)sc3C2)n(C)n1` [Compound 186, 6-[(3-ethyl-1-methyl-1H-pyrazol-5-yl)carbonyl]-N-hydroxy-4,5,6,7-tetrahydrothieno[2,3-c]pyridine-2-carboxamide], the pIC50 was greater than 7.30.

The compound `Cc1c(C(=O)N2CCc3cc(C(=O)NO)sc3C2)cnn1-c1ccccc1` [Compound 187, N-hydroxy-6-[(5-methyl-1-phenyl-1H-pyrazol-4-yl)carbonyl]-4,5,6,7-tetrahydrothieno[2,3-c]pyridine-2-carboxamide] showed a negative-log IC50 (pIC50) greater than 7.30. As for `CC(C)(C)c1ccc(CC(=O)N2CCc3cc(C(=O)NO)sc3C2)cc1` [Compound 188, 6-[(4-tert-butylphenyl)acetyl]-N-hydroxy-4,5,6,7-tetrahydrothieno[2,3-c]pyridine-2-carboxamide], the pIC50 is greater than 7.30. `CC(C)(C)c1ccc(C(=O)N2Cc3cc(C(=O)NO)sc3C(C)(C)C2)cc1` [Compound 190, 5-(4-tert-butylbenzoyl)-N-hydroxy-7,7-dimethyl-4,5,6,7-tetrahydrothieno[3,2-c]pyridine-2-carboxamide] had a negative logarithm of the IC50 (pIC50) of less than 6.00.

In turn, `CC1(C)CN(C(=O)c2sc3ccccc3c2Cl)Cc2cc(C(=O)NO)sc21` [Compound 192, 5-[(3-chloro-1-benzothien-2-yl)carbonyl]-N-hydroxy-7,7-dimethyl-4,5,6,7-tetrahydrothieno[3,2-c]pyridine-2-carboxamide] showed a pIC50 of less than 6.00.
